In article PMC4578755, “Development of novel cellular histone-binding and chromatin-displacement assays for bromodomain drug discovery” (Epigenetics & Chromatin, 2015):

Assays:
[1] = biological target: T1, endogenous TRIM24 in OV90 cells (Homo sapiens, UniProt O15164); assay: In situ cell extraction with IF in OV90 cells; format: cell-based
T1 construct: non-transfected OV90 cells looking at endogenous TRIM24; endogenous in cells; host or cells: OV90
T1 sequence (O15164 1-1050): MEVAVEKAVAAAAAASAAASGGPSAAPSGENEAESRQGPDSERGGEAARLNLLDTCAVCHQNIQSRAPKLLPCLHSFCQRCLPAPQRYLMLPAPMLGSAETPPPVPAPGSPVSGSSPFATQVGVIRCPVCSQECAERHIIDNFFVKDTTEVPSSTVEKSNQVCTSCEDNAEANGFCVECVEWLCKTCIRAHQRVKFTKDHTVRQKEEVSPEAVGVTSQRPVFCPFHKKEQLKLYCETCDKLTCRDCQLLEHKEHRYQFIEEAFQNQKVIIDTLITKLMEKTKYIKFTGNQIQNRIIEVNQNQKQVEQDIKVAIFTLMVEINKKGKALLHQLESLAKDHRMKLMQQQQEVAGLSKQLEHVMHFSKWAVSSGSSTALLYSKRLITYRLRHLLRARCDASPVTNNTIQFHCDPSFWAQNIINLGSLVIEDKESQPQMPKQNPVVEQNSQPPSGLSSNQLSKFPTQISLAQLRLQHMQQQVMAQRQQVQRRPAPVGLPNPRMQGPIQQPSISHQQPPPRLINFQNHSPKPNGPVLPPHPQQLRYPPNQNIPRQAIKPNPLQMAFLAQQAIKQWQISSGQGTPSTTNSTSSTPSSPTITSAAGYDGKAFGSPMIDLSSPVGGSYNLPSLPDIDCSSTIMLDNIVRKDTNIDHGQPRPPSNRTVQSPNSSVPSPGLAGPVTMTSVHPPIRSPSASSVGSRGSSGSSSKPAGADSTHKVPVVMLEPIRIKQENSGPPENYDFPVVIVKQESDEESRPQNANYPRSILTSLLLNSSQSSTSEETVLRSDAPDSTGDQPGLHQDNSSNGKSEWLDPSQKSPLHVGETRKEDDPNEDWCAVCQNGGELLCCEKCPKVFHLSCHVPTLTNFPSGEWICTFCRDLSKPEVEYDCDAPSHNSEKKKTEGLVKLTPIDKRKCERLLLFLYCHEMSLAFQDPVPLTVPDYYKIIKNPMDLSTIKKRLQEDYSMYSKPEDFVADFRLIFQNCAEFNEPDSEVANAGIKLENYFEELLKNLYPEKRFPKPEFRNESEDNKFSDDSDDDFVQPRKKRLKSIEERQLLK
Protocol: OV90 or HeLa cells (20,000 cells/100 µL) were seeded into 96-well plates (Corning Costar #3603) using RPMI or DMEM medium, respectively, supplemented with 10 % FBS and grown overnight. Test agents were serially diluted in DMSO (with or without SAHA) to generate 10X master compound plates. From here, 11 µL was transferred into each well containing 100 µL of growth media followed by shaking on a rotation table (15 min, 300 rpm at RT) and incubation at 37 °C for 2 h. Plates were washed once with PBS (150 µL/well) and then with cold, freshly prepared Cytoskeleton (CSK) Buffer (10 mM PIPES, 300 mM Sucrose, 100 mM NaCl, 3 mM MgCl2; pH = 6.8). Immediately thereafter, soluble, non-chromatin-bound proteins were extracted by addition of cold CSK Buffer supplemented with 0.5 % Triton X-100 (150 µL per well) for 10 min at 4 °C followed by 4 % paraformaldehyde fixation (10 min at RT) (Additional file 1: Table S3).
(§1) Standard IF procedures were used. Briefly, cells were permeabilized (0.5 % Triton X-100 in PBS) for 15 min and incubated with blocking solution (DAKO #X0909) for 30 min. The following primary antibodies were used: goat anti-V5 (Bethyl #A190-119A) 1:200; mouse anti-FLAG (Sigma #F1804) 1:200; rabbit anti-BRD4 (Abcam #ab128874) 1:200; rabbit anti-TRIM24 (Proteintech #14208-1-AP) 1:400; rabbit anti-K3K23Ac (Cell Signaling #8848) 1:200, and mouse anti-histone H3 (Active Motif #39763) 1:4000. Alexa Fluor-conjugated secondary antibodies were from Invitrogen and Hoechst 33342 (Invitrogen, #H3570) was used for nuclei counterstaining (10 µg/ml). For each Alexa fluorochrome, images (4–10 fields per well; 20X magnifications) were acquired using the Operetta High-Content Screening System (PerkinElmer). Image analysis was performed in Harmony software (PerkinElmer) by selecting nuclei and cytoplasm in Hoechst channel. Gating for single cells of flat morphology was done based on nuclei area, roundness and intensity of Hoechst in the nucleus and in the cytoplasm. In every gated cell, the mean signal intensity value for each fluorochrome was calculated separately in nucleus and cytoplasm. The specific nuclear signal was estimated subtracting mean cytoplasmic value from nuclear; and average value was calculated using at least 1000 cells in each well.
Supplemental Table S3 (Zhan et al.)
Table S3. In Situ Cell Extraction Procedure (IF)
Step Parameter Solution Volume Time Temp (°C)
Seed cells DMEM supplemented with 10 % FBS 37°C,
2 SAHA treatment SAHA (50 µM) in DMEM with 10% FBS 12 µL 2h 37°C,
3 Prepare Master 100X final concentration in assay 30 µL […]
Image analysis: The analysis was performed in Harmony (PerkinElmer) software by selecting nuclei and cytoplasm in Hoechst 33342 channel . […] For each channel “mean nuclear signal“ was calculated as “mean […]

[2] = test system: histone H3K23Ac mark in HeLa cells; assay: H3K23 acetylation in HeLa cells (Western blot, anti-H3K23Ac immunostaining); format: cell-based; details: 2 h
Protocol: as §1

## O=C(CCCCCCC(=O)Nc1ccccc1)NO [SAHA, Suberoylanilide Hydroxamic Acid]
[1]; OV90, SAHA treatment
  Mean IF nuclei intensity of endogenous TRIM24: did not change
[2]; 3 µM, HeLa control and TRIM24-PB cells
  H3K23 acetylation (anti-H3K23Ac immunostaining): maximal H3K23 acetylation
[2]; HDAC inhibitor treatment, 2 µM, Western blot
  Cellular histone H3K23Ac mark: hyperacetylated

## Cc1nc(S(=O)(=O)Nc2cc3c(cc2Oc2cccc(OCC(C)C)c2)n(C)c(=O)n3C)cn1C [IACS-6558, N-{1,3-dimethyl-6-[3-(2-methylpropoxy)phenoxy]-2-oxo-2,3-dihydro-1H-1,3-benzodiazol-5-yl}-1,2-dimethyl-1H-imidazole-4-sulfonamide]
[1]; OV90, 10 µM, 2 h
  Histone H3 protein levels: unchanged
[1]; OV90 cells
  Chromatin binding of endogenous TRIM24: readily reduced
[1]; non-transfected OV90 cells
  Time to displacement of endogenous TRIM24 from chromatin: ≤ 5 min
